Several values for one entry are separate records, joined by “and”; a condition that tells them apart may be missing. Equal entries are not always repeated. Residues, ends and D or L forms follow the SMILES beside them.
Tests used:
Swiss mice, kidney = assay: Nephrotoxicity in mice (kidney histopathology); assay type: in vivo, mouse; settings: for Kidney histopathology (SQS Score): 72 mg/kg/d subcutaneously in six divided doses every 2 h, n = 3
Procedure, shortened: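 Female Swiss mice (7-week-old, 22–28 g) received lipopeptides in saline either s.c. at 12 mg/kg ×6 every 2 h (total 72 mg/kg, n = 3) or i.p. at 20 or 25 mg/kg ×6 every 2 h (total 120 mg/kg, n = 6; 150 mg/kg, n = 3). Right kidney collected 20 h after last dose, fixed in 10% buffered formalin (pH 7.4), histology scored blinded.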

[1] = Acute toxicity in mice (maximum tolerated dose, IV bolus); assay type: in vivo, mouse; settings: mouse, in vivo, iv, single IV bolus dose, replicates 1-4; read-out: MTD, single replicate
Procedure, shortened: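 Female Swiss mice (7 weeks, 22–28 g) given single IV tail-vein bolus of lipopeptide in 0.9% saline, dosed as mg/kg free base. Clinical toxicity signs monitored over 0–24 h, most frequently in first 2 h.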

HK-2 cells = assay: Transcriptomic analysis (RNA-Seq) of kidney cells; assay type: cell-based, human; settings: for logFC, differential gene expression for all genes / log2FC / Fold Change: HK-2 RNA-Seq; for log2FC: Fig. 5f; for Fold Change: Fig. 5e; for num.of.degs: number of differentially expressed genes per peptide, Fig. 6a
Description: Human Kidney-2 (HK-2) cells (CRL-2190™, American Type Culture Collection) were treated with 100 μM colistin, F287, F319, and F365 for 24 h. Previous transcriptomic data of HK-2 cells following 24 h treatment with polymyxin B[26] were also employed for comparative bioinformatic analysis. RNA extraction was conducted as described above. Raw reads were aligned to genome GRCh38.94 (Ensembl genome database, http://ftp.ensembl.org/pub/release-94/fasta/homo_sapiens/dna/) using […] and summarized by featureCounts. Differentially expressed genes were determined using limma 3.46.0, with a combination of fold change ≥ 1.5 and FDR (by Benjamini–Hochberg algorithm) adjusted P-value ≤ 0.05 (n = 3). Key regulatory genes of HK-2 were analyzed in the context of signaling network in the Signor 2.0 database. Enrichment analysis of gene differential expression in HK-2 cells was conducted using enrichR 2.1. UpSetR 1.4.0, ComplexHeatmap 2.6.2, circlize 0.4.13 and iGraph 1.2.11 were used for data visualization. Raw data were deposited in the Short Reads Archive database under accession numbers SRR15239061-SRR15239078.

A. baumannii FADDI-AB051 = assay: Neutropenic mouse pneumonia model; assay type: in vivo
Description: (§1) The experimental methodology for the neutropenic mouse lung infection model was previously described in detail. Briefly, Swiss mice (female, 7-week-old, 22–28 g) were rendered neutropenic by intraperitoneal administration of cyclophosphamide, 4 days (150 mg/kg) and 1 day (100 mg/kg) prior to inoculation. Lung infection was established by the administration of 25 µL of early log-phase bacterial suspension (polymyxin-susceptible or resistant isolate, 4 × 10^7 CFU/mL), directly into the lungs via the trachea using a MicroSprayer™ device. Lipopeptide solutions were prepared in sterile saline. At 2 h after inoculation, mice (n = 3 or 4) were administered lipopeptide (45–240 mg/kg/d free base) or control (sterile saline) via an intraperitoneal or subcutaneous bolus injection in three divided doses every 8 h. At 0 or 24 h after the administration of lipopeptide solution or saline (control), animals were euthanized and lungs were collected and homogenized under sterile conditions. Homogenate was filtered and the filtrate was collected, serially diluted in sterile saline, and spread on nutrient agar plates. Agar plates were incubated at 37 °C overnight for bacterial colony counting and the bacterial load of the lung (log10 CFU/lung) in each mouse was calculated. In vivo efficacy was calculated as the difference of the log10 CFU/lung values between the treated mice at 24 h and the pre-treatment (control) at 0 h (Δlog10 CFU/lung = log10 [treated] CFU/lung − log10 [pre-treatment] CFU/lung).

[2] = tested on: K. pneumoniae FADDI-KP065; assay: Neutropenic mouse pneumonia model; assay type: in vivo
Description: as §1

[3] = tested on: P. aeruginosa FADDI-PA038; assay: Neutropenic mouse pneumonia model; assay type: in vivo
Description: as §1

A. baumannii FADDI-AB156 = assay: MIC, polymyxin-resistant isolate; assay type: cell-based, Acinetobacter baumannii; settings: carbapenem-resistant
Description: MICs were determined in cation-adjusted Mueller–Hinton broth (CaMHB) by the broth micro-dilution method against ATCC strains and clinical isolates. MICs in the presence of Survanta® were determined as described above against P. aeruginosa ATCC 27853. In the 100 μL of fresh CaMHB containing polymyxins, 10% Survanta® (v/v, 2.5 mg/mL phospholipids) was added. MICs in the presence and absence of Survanta® were compared to determine the effect of binding to lung surfactant on the antibacterial activity of polymyxins.

[4] = tested on: K. pneumoniae FADDI-KP027; assay type: cell-based, Klebsiella pneumoniae; settings: polymyxin-resistant
Procedure, shortened: (§2)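 MICs were determined by broth microdilution in cation-adjusted Mueller–Hinton broth (CaMHB), with clinical isolates tested alongside ATCC strains.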

K. pneumoniae Kp MKP103 = assay type: cell-based, Klebsiella pneumoniae; settings: polymyxin-resistant
Procedure, shortened: as §2

[5] = locus chr1 629640-630683 (ENSG00000225630 by coordinates)
[6] = locus chr1 632757-633438 (ENSG00000229344 by coordinates)
[7] = mouse, in vivo, ip, 60 mg/kg/day
[8] = 45 mg/kg/d IP in three divided doses every 8 h

| Compound | Kidney histopathology (SQS Score) (Swiss mice, kidney) | Kidney histopathology, mice with the SQS score (Swiss mice, kidney; mouse, in vivo) | logFC, differential gene expression for all genes (HK-2 cells; Geneid ENSG00000223972) | logFC, differential gene expression for all genes (HK-2 cells; Geneid ENSG00000227232) | logFC, differential gene expression for all genes (HK-2 cells; Geneid ENSG00000233750) | logFC, differential gene expression for all genes (HK-2 cells; Geneid ENSG00000278267) | log2FC (HK-2 cells; gene ENSG00000017483 SLC38A5) | log2FC (HK-2 cells; gene ENSG00000023445 BIRC3) | log2FC (HK-2 cells; gene ENSG00000056558 TRAF1) | log2FC (HK-2 cells; gene ENSG00000066468 FGFR2) | Fold Change (HK-2 cells; [5]) | num.of.degs (HK-2 cells) | Fold Change (HK-2 cells; [6]) | further results |
| --- | --- | --- | --- | --- | --- | --- | --- | --- | --- | --- | --- | --- | --- | --- |
| CCCCCCCC(=O)N[C@@H](CCN)C(=O)N[C@H](C(=O)N[C@@H](CN)C(=O)N[C@H]1CCNC(=O)[C@H]([C@@H](C)O)NC(=O)[C@H](CCN)NC(=O)[C@H](CCN)NC(=O)[C@H](CC)NC(=O)[C@@H](CC(C)C)NC(=O)[C@H](CCN)NC1=O)[C@@H](C)O [Lipopeptide F287] (HELM PEPTIDE1{[CCCCCCCC(=O)[*:2]].[Dab].T.[NC[C@H](N[*:1])C(=O)[*:2]].[Dab].[Dab].[dL].[Abu].[Dab].[Dab].T}$PEPTIDE1,PEPTIDE1,5:R3-11:R2$$$V2.0) | 0 (SQS 0 = no significant change (overall score, <1)) | 3/3 | -1.073 | -0.08434 | -0.6124 | 0.2137 | 0.6808 | -0.3448 | 0.757 | -1.141 | 0.9406 | 1076 | – | Kidney histological damage, mice with the given grade (Swiss mice, kidney; mouse, in vivo, ip, 120 mg/kg/day): 2/6; MTD [1]: 6 mg/kg; Fold Change (HK-2 cells; locus chr1 629062-629433 (ENSG00000225972 by coordinates)): 0.9117 |
| CCCCCCCC(=O)N[C@@H](CCN)C(=O)N[C@H](C(=O)N[C@@H](CCN)C(=O)N[C@H]1CCNC(=O)[C@H]([C@@H](C)O)NC(=O)[C@H](CCN)NC(=O)[C@H](CCN)NC(=O)[C@H](CC)NC(=O)[C@@H](CC(C)C)NC(=O)[C@H](CCN)NC1=O)[C@@H](C)O [Lipopeptide F319] (HELM PEPTIDE1{[CCCCCCCC(=O)[*:2]].[Dab].T.[Dab].[Dab].[Dab].[dL].[Abu].[Dab].[Dab].T}$PEPTIDE1,PEPTIDE1,5:R3-11:R2$$$V2.0) | +1 (SQS + 1 = mild damage (overall score, 1 to <15)) | 1/3 | -0.1551 | -0.02116 | -0.4424 | 0.1872 | 0.557 | -0.6344 | 0.7378 | -1.084 | 0.3467 | 763 | 0.6059 | – |
| Colistin [reference compound] | +5 (SQS + 5 = severe damage (overall score, >60)) | 3/3 | -0.6712 | -0.1985 | -0.899 | -0.3433 | 0.7893 | -0.6239 | 0.6268 | -1.3101 | 0.2606 | 1282 | 0.2186 | – |
| Polymyxin B [reference compound] | +5 (SQS + 5 = severe damage (overall score, >60)) | 3/3 | 0.4637 | -0.07236 | -0.3869 | -0.4937 | 0.7953 | -0.454 | 0.6897 | -1.758 | 1.799 | 1576 | 1.2 | Kidney histological damage (Swiss mice, kidney; [7]): Moderate to severe; Kidney histological damage, mice with the given grade (Swiss mice, kidney; [7]): 6/6; bacterial killing in lung at 24 h vs pre-treatment inoculum (A. baumannii FADDI-AB051; [8]): did not show any significant killing; Tukey HSD diff, Pre-treatment minus treated group (Log10 CFU/lung) (A. baumannii FADDI-AB051; Fig. b, 45mg/kg/d): -1.5825; Tukey HSD diff, Vehicle minus treated group (Log10 CFU/lung) (A. baumannii FADDI-AB051; Fig. b, 45mg/kg/d): 0.4067; Log10 CFU/lung (A. baumannii FADDI-AB051; Figure 3b, 45mg/kg/d, individual mice): 8.40 Log10 CFU/lung and 8.27 Log10 CFU/lung and 8.53 Log10 CFU/lung and 8.10 Log10 CFU/lung; bacterial killing in lung at 24 h vs pre-treatment inoculum [2, 8]: did not show any significant killing; Tukey HSD diff, Pre-treatment minus treated group (Log10 CFU/lung) ([2]; Fig. c, 45mg/kg/d): -0.6875; Tukey HSD diff, Vehicle minus treated group (Log10 CFU/lung) ([2]; Fig. c, 45mg/kg/d): 1.1935; Log10 CFU/lung ([2]; Figure 3c, 45mg/kg/d, individual mice): 7.24 Log10 CFU/lung and 7.26 Log10 CFU/lung and 7.84 Log10 CFU/lung and 7.07 Log10 CFU/lung; bacterial killing in lung at 24 h vs pre-treatment inoculum [3, 8]: did not show any significant killing; Tukey HSD diff, Pre-treatment minus treated group (Log10 CFU/lung) ([3]; Fig. a, 45mg/kg/d): -1.2575; Tukey HSD diff, Vehicle minus treated group (Log10 CFU/lung) ([3]; Fig. a, 45mg/kg/d): 1.661; Log10 CFU/lung ([3]; Figure 3a, 45mg/kg/d, individual mice): 7.47 Log10 CFU/lung and 7.01 Log10 CFU/lung and 7.92 Log10 CFU/lung and 8.38 Log10 CFU/lung; MIC A. baumannii FADDI-AB156 (A. baumannii FADDI-AB156): 8 µg/mL; MIC K. pneumoniae FADDI-KP027 [4]: > 32 µg/mL; MIC K. pneumoniae Kp MKP103 (K. pneumoniae Kp MKP103): 16 µg/mL; Fold Change (HK-2 cells; locus chr1 631074-632616 (ENSG00000237973 by coordinates)): 1.271 |

Reference: PMC8956739, “A synthetic lipopeptide targeting top-priority multidrug-resistant Gram-negative pathogens” (Nature Communications, 2022)
